In patent US12454509B2, “Local anesthetics with selective-sensory nerve blockade” (Children's Medical Center Corporation, priority 2019, dated 2025):
Several values for one entry are separate records, joined by “and”; a condition that tells them apart may be missing. Identical values can stand only once.

What was measured:
C2C12 Mouse myoblasts = assay: Cytotoxicity in C2C12 myotubules; format: cell-based; settings: C2C12 cells; for IC50: Mus musculus, cytotoxicity, exposure up to 24 h; for cytotoxicity compared with ropivacaine and bupivacaine (in words): FIG. 2 / Table 2
Experimental: (§1) C2C12 Mouse myoblasts [American Type Culture Collection (ATCC) CRL-1772] were cultured to proliferate in DMEM supplemented with 20% FBS and 100 Penicillin Streptomycin. Cell culture supplies were obtained from Invitrogen, unless otherwise noted. Cells were plated at 50,000 cells per mL in DMEM with 2% horse serum and 1% Penn Strep, and left to differentiate into myotubules for 10-14 days. During differentiation, media were exchanged every 2 to 3 days. Cell viability and proliferation were studied after exposures to drugs for up to 24 h. PC12 cells (ATCC, CRL-1721) originating from rat adrenal gland pheochromocytoma were grown in 24-well tissue culture dishes (CellBind; Corning) with F-12K (ATCC) supplemented with 12.5% horse serum (Gibco), 2.5% FBS (Gibco), and 1% Penn Strep (Sigma). For neuronal induction (PC12), cells were seeded at a relative low density of 5×10^4 cells/cm2 and 50 ng/mL NGF was added 24 h after seeding. Cell viability and proliferation were evaluated as for C2C12 cells. Experiments with PC12 cells were conducted for up to 24 hours.

sciatic nerve [1] = assay: Sciatic nerve block in rats: duration of thermal nociceptive (sensory) block, modified hotplate test; format: in vivo, rat; settings: for Block Duration (min) Sensory: rat sciatic nerve injection 0.3 mL; for Sensory:Motor Block Ratio: rat sciatic nerve block
Description: (§2) Sciatic Nerve Block and Neurobehavioral Testing. Animals were cared for in compliance with protocols approved by the Children's Hospital Animal Care and Use Committee, and the Massachusetts Institute of Technology Committee on Animal Care, which conformed to guidelines of the International Association for the Study of Pain. Adult male Sprague-Dawley rats (Charles River Laboratories) weighing 320-450 g were housed in groups, in a 6 AM to 6 PM light-dark cycle. Under brief isoflurane-oxygen anesthesia, a 23G needle was introduced postero-medial to the greater trochanter, until bone was contacted, and 0.3 mL of test solution was injected over the sciatic nerve. Thermal nociception was assessed by a modified hotplate test, and motor function via a weight-bearing test. […] Motor strength was assessed with a weight-bearing test. In brief, the animal was held over a digital balance such that it could bear weight with 1 hind paw at a time. The maximum weight that it could bear was recorded. The duration of motor blockade was defined as the time for weight bearing to return halfway to normal from maximal block. The halfway point for each rat was defined as […].

hERG = hERG (Homo sapiens, UniProt Q12809); assay: Whole-cell patch clamp, hERG current in stably transfected HEK cells
Experimental: (§3) These experiments were designed to examine the acute effects of 4Sa (ZYK2312-1), 4Sb (ZYK2312-2), and bupivacaine on hERG and peak Nav1.5 currents recorded from stably transfected HEK cells.
(§4) Experimental Methods: Currents were measured using the whole-cell variant of the patch clamp method. Glass pipettes were pulled from borosilicate glass by a horizontal puller (Sutter Instruments, USA). Pipette tip resistance was approximately 1 to 2 MΩ when filled with internal solutions. Series resistance was compensated electronically by approximately 60-80%. Bath temperature was measured by a thermistor placed near the cell under study. An Axopatch 1-B amplifier (Axon Instruments, Foster City, CA) was used for whole-cell voltage clamping. Creation of voltage clamp pulses and data acquisition was controlled by a computer running pClamp software (ver 9.2 Axon Instruments). After rupture of the cell membrane (entering whole-cell mode), current kinetics and amplitudes were allowed to stabilize as the cell was dialyzed with internal solution and paced every 5 seconds (typically 2 to 3 minutes). Peak INa was elicited using a pulse pattern with fixed amplitudes (conditioning prepulse: −120 mV for 50 ms; depolarizing test step to −30 mV for 20 ms). hERG current was elicited with a 500 ms pulse to +10 mV followed by a 500 ms pulse to −40 mV (holding potential=[…]). Cells were perfused at each testing concentration until a steady-state was reached.
(§5) Raw data and mean±SEM are given. Data are presented as percent reduction of current amplitude. […] Each cell served as its own control. A nonlinear curve-fitting routine was utilized to fit a three-parameter Hill equation to the results using MicroCal Origin, version 6.0 software. The equation is:
(§6) [formula] where Vmax=100 and k and n are unconstrained variables.

peak Nav1.5 = peak Nav1.5 (Homo sapiens, UniProt Q14524); assay: Whole-cell patch clamp, peak Nav1.5 current in stably transfected HEK cells; settings: for inhibition at 10 µM: HEK293, read-out: peak Nav1.5 current amplitude, percent reduction, 10 μM, individual cell (raw data); for inhibition at 100 µM: HEK293, read-out: peak Nav1.5 current amplitude, percent reduction, 100 μM, individual cell (raw data); for peak Nav1.5 current amplitude, percent reduction: individual cell (raw data); for inhibition at 1 µM: HEK293, read-out: peak Nav1.5 current amplitude, percent reduction, 1 μM, individual cell (raw data); for inhibition at 1000 µM: HEK293, read-out: peak Nav1.5 current amplitude, percent reduction, 1000 μM, individual cell (raw data)
Experimental: as §3, §4, §5, §6

sciatic nerve [2] = assay: Sciatic nerve block in rats: duration of motor block, weight-bearing test; format: in vivo; settings: rat sciatic nerve injection 0.3 mL
Description: as §2

PC12 cells = assay: Cytotoxicity in PC12 cells; format: cell-based, rat; settings: for IC50: Rattus norvegicus, PC-12, cytotoxicity, exposure up to 24 h; for cytotoxicity compared with ropivacaine and bupivacaine (in words): FIG. 1 / Table 2
Experimental: as §1

Sequence of hERG (Q12809 whole entry): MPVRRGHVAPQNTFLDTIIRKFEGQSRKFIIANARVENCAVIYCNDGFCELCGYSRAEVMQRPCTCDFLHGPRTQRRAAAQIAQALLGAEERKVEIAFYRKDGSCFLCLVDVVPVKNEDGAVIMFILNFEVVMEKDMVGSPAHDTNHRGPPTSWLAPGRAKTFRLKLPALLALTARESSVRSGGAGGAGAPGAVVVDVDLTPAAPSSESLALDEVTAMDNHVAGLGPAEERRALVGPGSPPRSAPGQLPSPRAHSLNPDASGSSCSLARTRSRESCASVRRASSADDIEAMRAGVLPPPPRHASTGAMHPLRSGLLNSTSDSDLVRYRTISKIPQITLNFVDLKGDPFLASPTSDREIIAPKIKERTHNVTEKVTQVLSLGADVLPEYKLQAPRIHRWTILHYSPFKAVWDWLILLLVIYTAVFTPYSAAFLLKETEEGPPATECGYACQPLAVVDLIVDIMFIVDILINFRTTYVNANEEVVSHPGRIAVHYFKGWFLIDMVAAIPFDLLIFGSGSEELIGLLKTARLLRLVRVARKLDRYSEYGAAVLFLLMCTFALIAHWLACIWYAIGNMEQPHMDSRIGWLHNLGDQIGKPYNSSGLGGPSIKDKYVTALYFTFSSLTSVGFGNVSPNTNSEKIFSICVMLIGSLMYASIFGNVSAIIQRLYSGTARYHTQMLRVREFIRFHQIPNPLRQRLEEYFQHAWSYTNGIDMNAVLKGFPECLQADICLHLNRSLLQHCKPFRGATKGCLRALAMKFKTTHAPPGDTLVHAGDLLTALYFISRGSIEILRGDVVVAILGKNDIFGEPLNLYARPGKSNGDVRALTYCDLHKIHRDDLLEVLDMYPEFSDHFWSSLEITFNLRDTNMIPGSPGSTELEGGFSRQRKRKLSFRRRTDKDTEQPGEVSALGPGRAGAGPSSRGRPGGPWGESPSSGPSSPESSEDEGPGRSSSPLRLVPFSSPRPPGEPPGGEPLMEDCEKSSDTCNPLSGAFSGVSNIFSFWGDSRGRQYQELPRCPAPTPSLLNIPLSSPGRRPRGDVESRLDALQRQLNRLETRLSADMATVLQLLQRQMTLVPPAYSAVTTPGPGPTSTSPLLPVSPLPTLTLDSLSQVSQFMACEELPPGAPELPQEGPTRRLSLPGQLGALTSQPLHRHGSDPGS
Sequence of peak Nav1.5 (Q14524 whole entry): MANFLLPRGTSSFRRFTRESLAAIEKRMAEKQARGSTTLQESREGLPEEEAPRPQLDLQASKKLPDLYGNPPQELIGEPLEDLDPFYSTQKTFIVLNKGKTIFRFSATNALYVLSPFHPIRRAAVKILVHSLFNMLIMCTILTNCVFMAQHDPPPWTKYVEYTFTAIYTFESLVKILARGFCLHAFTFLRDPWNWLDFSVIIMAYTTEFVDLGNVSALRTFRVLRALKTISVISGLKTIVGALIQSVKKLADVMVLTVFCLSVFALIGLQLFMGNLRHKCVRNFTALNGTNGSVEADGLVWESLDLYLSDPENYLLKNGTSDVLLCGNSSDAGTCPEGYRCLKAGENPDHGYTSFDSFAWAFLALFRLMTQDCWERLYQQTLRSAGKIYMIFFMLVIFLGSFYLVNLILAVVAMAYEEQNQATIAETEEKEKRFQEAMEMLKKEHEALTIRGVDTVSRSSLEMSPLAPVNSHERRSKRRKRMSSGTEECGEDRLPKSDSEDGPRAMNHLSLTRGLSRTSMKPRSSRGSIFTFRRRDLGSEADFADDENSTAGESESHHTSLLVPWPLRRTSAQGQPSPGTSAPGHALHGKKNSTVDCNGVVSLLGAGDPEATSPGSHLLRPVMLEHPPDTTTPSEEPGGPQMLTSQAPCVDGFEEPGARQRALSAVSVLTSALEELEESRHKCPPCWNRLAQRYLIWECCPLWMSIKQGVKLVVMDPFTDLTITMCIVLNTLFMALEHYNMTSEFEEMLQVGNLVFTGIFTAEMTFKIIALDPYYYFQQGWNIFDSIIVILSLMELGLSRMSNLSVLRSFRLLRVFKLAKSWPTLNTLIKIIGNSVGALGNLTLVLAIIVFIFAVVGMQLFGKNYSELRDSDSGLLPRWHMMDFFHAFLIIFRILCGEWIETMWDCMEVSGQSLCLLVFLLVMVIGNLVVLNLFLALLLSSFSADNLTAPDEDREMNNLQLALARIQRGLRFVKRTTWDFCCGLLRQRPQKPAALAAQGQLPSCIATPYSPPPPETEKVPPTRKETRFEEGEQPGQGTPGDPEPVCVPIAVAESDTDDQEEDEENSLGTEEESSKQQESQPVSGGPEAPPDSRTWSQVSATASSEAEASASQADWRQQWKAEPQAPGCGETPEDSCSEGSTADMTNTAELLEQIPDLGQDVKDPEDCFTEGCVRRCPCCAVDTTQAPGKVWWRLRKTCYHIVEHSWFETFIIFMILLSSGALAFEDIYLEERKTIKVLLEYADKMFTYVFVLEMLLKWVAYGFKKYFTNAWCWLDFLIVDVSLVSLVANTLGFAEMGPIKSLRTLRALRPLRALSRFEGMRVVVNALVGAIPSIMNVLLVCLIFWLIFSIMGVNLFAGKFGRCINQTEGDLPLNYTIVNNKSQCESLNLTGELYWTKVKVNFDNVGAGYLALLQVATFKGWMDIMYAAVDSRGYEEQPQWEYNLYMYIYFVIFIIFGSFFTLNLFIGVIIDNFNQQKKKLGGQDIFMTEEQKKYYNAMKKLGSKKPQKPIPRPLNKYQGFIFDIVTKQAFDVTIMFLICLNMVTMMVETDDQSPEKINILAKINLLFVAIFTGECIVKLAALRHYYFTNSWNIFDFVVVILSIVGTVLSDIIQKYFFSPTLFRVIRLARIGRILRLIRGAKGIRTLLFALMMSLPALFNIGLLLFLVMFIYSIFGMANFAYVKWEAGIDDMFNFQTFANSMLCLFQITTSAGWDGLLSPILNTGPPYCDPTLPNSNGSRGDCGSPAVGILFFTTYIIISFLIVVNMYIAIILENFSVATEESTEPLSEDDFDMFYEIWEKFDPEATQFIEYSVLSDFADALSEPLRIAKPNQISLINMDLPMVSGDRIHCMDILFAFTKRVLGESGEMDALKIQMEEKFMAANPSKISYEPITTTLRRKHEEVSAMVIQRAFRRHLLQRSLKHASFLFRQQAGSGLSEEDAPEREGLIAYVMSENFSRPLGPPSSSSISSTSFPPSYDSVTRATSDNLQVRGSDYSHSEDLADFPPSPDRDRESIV

SMILES: CCCCN1CCCCC1C(=O)Nc1c(C)cccc1C (stereo not drawn) [Bupivacaine, bupivacaine, reference compound]
- IC50 (C2C12 Mouse myoblasts): 720 µM
- Block Duration (min) Sensory (sciatic nerve [1]; dose conc 10 mM): 129 ± 21 min
- Block Duration (min) Sensory (sciatic nerve [1]; dose conc 15 mM): 215 ± 31 min
- IC50 (hERG): 16.4 µM
- hERG current amplitude, percent reduction (hERG; 1 μM, individual cell (raw data)): 19.8% and 9.1% and 10.5%
- hERG current amplitude, percent reduction, mean ± SE (hERG; 1 μM, mean ± SE): 13.1 ± 3.4%
- hERG current amplitude, percent reduction (hERG; 10 μM, individual cell (raw data)): 43.0% and 45.0% and 42.1%
- hERG current amplitude, percent reduction, mean ± SE (hERG; 10 μM, mean ± SE): 43.4 ± 0.9%
- hERG current amplitude, percent reduction (hERG; 100 μM, individual cell (raw data)): 76.3% and 70.7% and 78.9%
- hERG current amplitude, percent reduction, mean ± SE (hERG; 100 μM, mean ± SE): 75.3 ± 2.4%
- IC50 (peak Nav1.5): 9.8 µM
- peak Nav1.5 current amplitude, percent reduction, mean ± SE (peak Nav1.5; 1 μM): 13.5 ± 3.1%
- peak Nav1.5 current amplitude, percent reduction, mean ± SE (peak Nav1.5; 10 μM): 49.0 ± 1.0%
- peak Nav1.5 current amplitude, percent reduction, mean ± SE (peak Nav1.5; 100 μM): 90.7 ± 1.5%
- inhibition at 10 µM (peak Nav1.5): 50.8%
- inhibition at 100 µM (peak Nav1.5): 89.2%
- Block Duration (min) Motor (sciatic nerve [2]; dose conc 10 mM): 140 ± 15 min
- Block Duration (min) Motor (sciatic nerve [2]; dose conc 15 mM): 222 ± 30 min
- IC50 (PC12 cells): 870 µM

SMILES: CCC[N@+]1(CC(=O)OC)CCCC[C@H]1C(=O)Nc1c(C)cccc1C.[Br-] [Compound 4Sa, 2-((2,6-Dimethylphenyl)carbamoyl)-1-(2-methoxy-2-oxoethyl)-1-propylpiperidin-1-ium bromide]
- cytotoxicity compared with ropivacaine and bupivacaine (in words) (C2C12 Mouse myoblasts): significantly less cytotoxic than ropivacaine and bupivacaine
- IC50 (C2C12 Mouse myoblasts): 14600 µM
- Block Duration (min) Sensory (sciatic nerve [1]; dose conc 10 mM): 200 ± 60 min
- IC50 (hERG): 814 µM
- hERG current amplitude, percent reduction (hERG; human, 1 μM): 0%
- hERG current amplitude, percent reduction, mean ± SE (hERG; human, 1 μM): 0 ± 0%
- hERG current amplitude, percent reduction, mean ± SE (hERG; human, 10 μM): 3.6 ± 0.5%
- hERG current amplitude, percent reduction, mean ± SE (hERG; human, 100 μM): 16.8 ± 4.0%
- hERG current amplitude, percent reduction, mean ± SE (hERG; human, 300 μM): 31.3 ± 2.0%
- hERG current amplitude, percent reduction, mean ± SE (hERG; human, 1000 μM): 51.6 ± 2.2%
- peak Nav1.5 current amplitude, percent reduction (peak Nav1.5; 1 μM): 0%
- peak Nav1.5 current amplitude, percent reduction, mean ± SE (peak Nav1.5; 1 μM): 0 ± 0%
- peak Nav1.5 current amplitude, percent reduction (peak Nav1.5; 10 μM): 0%
- peak Nav1.5 current amplitude, percent reduction, mean ± SE (peak Nav1.5; 10 μM): 0 ± 0%
- peak Nav1.5 current amplitude, percent reduction, mean ± SE (peak Nav1.5; 100 μM): 2.3 ± 1.4%
- peak Nav1.5 current amplitude, percent reduction, mean ± SE (peak Nav1.5; 300 μM): 5.6 ± 1.8%
- peak Nav1.5 current amplitude, percent reduction, mean ± SE (peak Nav1.5; 1000 μM): 14.6 ± 3.4%
- inhibition at 1 µM (peak Nav1.5): 0%
- inhibition at 10 µM (peak Nav1.5): 0%
- inhibition at 300 µM (peak Nav1.5; HEK293, read-out: peak Nav1.5 current amplitude, percent reduction, 300 μM, individual cell (raw data)): 3.7%
- inhibition at 1000 µM (peak Nav1.5): 11.2%
- Block Duration (min) Motor (sciatic nerve [2]; dose conc 10 mM): 100 ± 60 min
- cytotoxicity compared with ropivacaine and bupivacaine (in words) (PC12 cells): significantly less cytotoxic than ropivacaine and bupivacaine
- IC50 (PC12 cells): 19200 µM

SMILES: CCC[N@@+]1(CC(=O)OC)CCCC[C@H]1C(=O)Nc1c(C)cccc1C.[Br-] [Compound 4Sb, 2-((2,6-Dimethylphenyl)carbamoyl)-1-(2-methoxy-2-oxoethyl)-1-propylpiperidin-1-ium bromide]
- cytotoxicity compared with ropivacaine and bupivacaine (in words) (C2C12 Mouse myoblasts): significantly less cytotoxic than ropivacaine and bupivacaine
- IC50 (C2C12 Mouse myoblasts; unit inferred): 19300 µM
- Sensory:Motor Block Ratio (sciatic nerve [1]; dose conc 10 mM): ∞
- Sensory:Motor Block Ratio (sciatic nerve [1]; dose conc 15 mM): ∞
- Block Duration (min) Sensory (sciatic nerve [1]; dose conc 10 mM): 90 ± 30 min
- Block Duration (min) Sensory (sciatic nerve [1]; dose conc 15 mM): 200 ± 30 min
- hERG current amplitude, percent reduction (hERG; human, 1 μM): 0%
- hERG current amplitude, percent reduction, mean ± SE (hERG; human, 1 μM): 0 ± 0%
- hERG current amplitude, percent reduction (hERG; human, 10 μM): 0%
- hERG current amplitude, percent reduction, mean ± SE (hERG; human, 10 μM): 0 ± 0%
- hERG current amplitude, percent reduction, mean ± SE (hERG; human, 100 μM): 1.5 ± 0.8%
- hERG current amplitude, percent reduction, mean ± SE (hERG; human, 300 μM): 6.4 ± 1.1%
- hERG current amplitude, percent reduction, mean ± SE (hERG; human, 1000 μM): 18.3 ± 2.9%
- peak Nav1.5 current amplitude, percent reduction (peak Nav1.5; 1 μM): 0%
- peak Nav1.5 current amplitude, percent reduction, mean ± SE (peak Nav1.5; 1 μM): 0 ± 0%
- peak Nav1.5 current amplitude, percent reduction (peak Nav1.5; 10 μM): 0%
- peak Nav1.5 current amplitude, percent reduction, mean ± SE (peak Nav1.5; 10 μM): 0 ± 0%
- peak Nav1.5 current amplitude, percent reduction (peak Nav1.5; 100 μM): 0%
- peak Nav1.5 current amplitude, percent reduction, mean ± SE (peak Nav1.5; 100 μM): 0 ± 0%
- peak Nav1.5 current amplitude, percent reduction, mean ± SE (peak Nav1.5; 300 μM): 4.2 ± 0.9%
- peak Nav1.5 current amplitude, percent reduction, mean ± SE (peak Nav1.5; 1000 μM): 13.3 ± 2.9%
- inhibition at 1 µM (peak Nav1.5): 0%
- inhibition at 10 µM (peak Nav1.5): 0%
- inhibition at 100 µM (peak Nav1.5): 0%
- inhibition at 1000 µM (peak Nav1.5): 13.8%
- Block Duration (min) Motor (sciatic nerve [2]; dose conc 10 mM): 0 min
- Block Duration (min) Motor (sciatic nerve [2]; dose conc 15 mM): 0 min
- cytotoxicity compared with ropivacaine and bupivacaine (in words) (PC12 cells): significantly less cytotoxic than ropivacaine and bupivacaine
- IC50 (PC12 cells; unit inferred): 20100 µM

SMILES: CCC[N+]1(COC(C)=O)CCCC[C@H]1C(=O)Nc1c(C)cccc1C.[Br-] (stereo partly drawn) [Compound 10S, 1-(Acetoxymethyl)-2-((2,6-dimethylphenyl)carbamoyl)-1-propylpiperidin-1-ium bromide]
- cytotoxicity compared with ropivacaine and bupivacaine (in words) (C2C12 Mouse myoblasts): significantly less cytotoxic than ropivacaine and bupivacaine
- Block Duration (min) Sensory (sciatic nerve [1]; dose conc 5 mM): 55 ± 23 min
- Block Duration (min) Sensory (sciatic nerve [1]; dose conc 10 mM): 105 ± 53 min
- Block Duration (min) Motor (sciatic nerve [2]; dose conc 5 mM): 15 ± 15 min
- Block Duration (min) Motor (sciatic nerve [2]; dose conc 10 mM): 65 ± 34 min
- cytotoxicity compared with ropivacaine and bupivacaine (in words) (PC12 cells): significantly less cytotoxic than ropivacaine and bupivacaine

SMILES: CCC[N@@+]1(CC(=O)NC)CCCC[C@H]1C(=O)Nc1c(C)cccc1C [Compound 26Sa, 2-((2,6-dimethylphenyl)carbamoyl)-1-(2-(methylamino)-2-oxoethyl)-1-propyl-1-piperidin-2-ylium bromide]
- cytotoxicity compared with ropivacaine and bupivacaine (in words) (C2C12 Mouse myoblasts): significantly less cytotoxic than ropivacaine and bupivacaine
- IC50 (C2C12 Mouse myoblasts): 1000 µM
- Block Duration (min) Sensory (sciatic nerve [1]; dose conc 10 mM): 180 min
- Block Duration (min) Motor (sciatic nerve [2]; dose conc 10 mM): 140 min
- cytotoxicity compared with ropivacaine and bupivacaine (in words) (PC12 cells): significantly less cytotoxic than ropivacaine and bupivacaine
- IC50 (PC12 cells): 1200 µM
